Experimental data reported in the NIST ThermoML archive (doi:10.1021/je301004f).

Columns and labels:
[1] = for mass density / viscosity: 101.33 kPa, Liquid; for mass density: Vibrating tube method; for viscosity: Falling or rolling sphere viscometry
[2] = refractive index (Na D-line) (dimensionless); conditions: 101.33 kPa, Liquid, Standard Abbe refractometry

CCCCCCCC/C=C\CCCCCCCCn1cc[n+](C)c1.O=S(=O)([N-]S(=O)(=O)C(F)(F)F)C(F)(F)F
Conditions	mass density [kg/m3]	refractive index	viscosity [mPa·s]
[1], 273.15 K	1210.9	–	–
[1], 278.15 K	–	–	1005.3
[1], 283.15 K	1202.62	–	698.6
[1], 288.15 K	–	–	492.9
[1], 293.15 K	1194.49	–	355.7
[1], 298.15 K	–	–	263.5
[1], 303.15 K	1186.39	–	222.85
[1], 313.15 K	1178.38	–	133.94
[1], 323.15 K	1170.38	–	85.97
[1], 333.15 K	1162.47	–	58.09
[1], 343.15 K	1154.57	–	41.09
[2], 283.2 K	–	1.4576	–
[2], 293.2 K	–	1.4545	–
[2], 298.2 K	–	1.4528	–
[2], 303.2 K	–	1.4511	–
[2], 313.2 K	–	1.4479	–
[2], 323.2 K	–	1.4446	–
[2], 333.2 K	–	1.441	–
[2], 343.2 K	–	1.4379	–

Conditions	Normal melting temperature [°C]
[1], Crystal, DTA	-20.8
